Measured values as given in patent US20250084056A1, “SUBSTITUTED OXOISOINDOLINYL PIPERIDINE-2,6-DIONE COMPOUNDS” (BRISTOL-MYERS SQUIBB COMPANY, priority 2023, published 2025).

Experiments:
Type in all cases: cell-based
GSPT1 = GSPT1 (Homo sapiens, UniProt P15170+Q96SW2); assay: GSPT1 Cellular Degradation Assay (DF15-GSPT1-ePL); set-up: expressed in transfected cells; conditions: DF15-GSPT1-ePL cells, 20 hours
Procedure, shortened: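 Human DF15 cells co-expressing a GSPT1–ePL fusion were treated with compound in RPMI 1640/10% FBS for 20 h at 37 °C. GSPT1 level was read by enzyme-fragment-complementation luminescence after 60 min with detection reagent. The reference degrader at […] defined 75% response; DC50 and Dmax were reported.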

Phospho-Rb (Ser807/811) = assay: Phospho-Retinoblastoma (pRB) Cellular Assay; conditions: Homo sapiens, OVCAR-3, NIH OVCAR3 cells, 24 hours; for IC50: concentration giving 50% response; for Emax: maximum response, reference compound at 10 μM = 100%, read-out: pRB Ymax
Procedure, shortened: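 OVCAR3 cells seeded overnight, then dosed with serial dilutions for 24 h at 37° C. Lysed with kit mix plus phosphatase inhibitor, ≥4 h at room temperature, read on EnVision; 100% response set by reference compound at 10 μM, giving IC50 and Ymax.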

Cyclin E1 = Cyclin E1 (Homo sapiens, UniProt P24864+Q96SW2); assay: Cyclin E1 Cellular Degradation Assay (MSD); set-up: endogenous in cells; host or cells: OVCAR3; conditions: for DC50 / Dmax: Cyclin E1 cellular degradation; for Dmax: maximum degradation; for Ratio of GSPT1 DC50/Cyclin E1 DC50: selectivity for degradation of Cyclin E1 over GSPT1
Procedure, shortened: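 OVCAR3 cells treated with compound for 24 h at 37 °C, lysed, and cyclin E1 measured by MSD sandwich immunoassay (rabbit capture, mouse detection anti-CCNE1). Reference degrader at […] defined 110% response; DC50 and Dmax derived from response.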

GSPT1, sequence (P15170 whole entry, the tested form may be a part): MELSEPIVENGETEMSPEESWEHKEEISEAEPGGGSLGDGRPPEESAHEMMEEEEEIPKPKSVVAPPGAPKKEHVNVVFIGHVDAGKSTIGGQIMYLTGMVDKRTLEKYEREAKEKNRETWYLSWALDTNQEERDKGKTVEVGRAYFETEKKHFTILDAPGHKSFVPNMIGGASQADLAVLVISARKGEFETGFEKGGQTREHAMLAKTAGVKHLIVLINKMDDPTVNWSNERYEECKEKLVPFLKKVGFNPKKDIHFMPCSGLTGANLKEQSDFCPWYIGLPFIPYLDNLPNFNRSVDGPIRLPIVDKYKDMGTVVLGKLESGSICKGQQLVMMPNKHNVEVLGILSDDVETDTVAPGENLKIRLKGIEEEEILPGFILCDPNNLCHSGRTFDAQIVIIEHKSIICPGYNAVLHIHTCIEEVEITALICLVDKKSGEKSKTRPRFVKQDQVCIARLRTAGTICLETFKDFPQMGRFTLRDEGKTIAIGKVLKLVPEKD
GSPT1, sequence (Q96SW2 whole entry, the tested form may be a part): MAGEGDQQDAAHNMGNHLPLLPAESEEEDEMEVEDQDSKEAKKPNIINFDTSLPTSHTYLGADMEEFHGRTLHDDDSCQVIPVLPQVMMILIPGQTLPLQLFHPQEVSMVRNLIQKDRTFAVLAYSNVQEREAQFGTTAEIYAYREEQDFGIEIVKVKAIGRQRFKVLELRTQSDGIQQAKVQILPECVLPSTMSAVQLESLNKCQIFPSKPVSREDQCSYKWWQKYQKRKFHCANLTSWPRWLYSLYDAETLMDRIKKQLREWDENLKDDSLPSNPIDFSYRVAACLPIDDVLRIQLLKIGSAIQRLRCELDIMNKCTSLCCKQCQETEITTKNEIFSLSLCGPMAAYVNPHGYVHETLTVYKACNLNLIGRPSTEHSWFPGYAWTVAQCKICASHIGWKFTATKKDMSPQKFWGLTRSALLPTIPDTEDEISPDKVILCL
GSPT1, sequence (Q16531 whole entry partner, the tested form may be a part): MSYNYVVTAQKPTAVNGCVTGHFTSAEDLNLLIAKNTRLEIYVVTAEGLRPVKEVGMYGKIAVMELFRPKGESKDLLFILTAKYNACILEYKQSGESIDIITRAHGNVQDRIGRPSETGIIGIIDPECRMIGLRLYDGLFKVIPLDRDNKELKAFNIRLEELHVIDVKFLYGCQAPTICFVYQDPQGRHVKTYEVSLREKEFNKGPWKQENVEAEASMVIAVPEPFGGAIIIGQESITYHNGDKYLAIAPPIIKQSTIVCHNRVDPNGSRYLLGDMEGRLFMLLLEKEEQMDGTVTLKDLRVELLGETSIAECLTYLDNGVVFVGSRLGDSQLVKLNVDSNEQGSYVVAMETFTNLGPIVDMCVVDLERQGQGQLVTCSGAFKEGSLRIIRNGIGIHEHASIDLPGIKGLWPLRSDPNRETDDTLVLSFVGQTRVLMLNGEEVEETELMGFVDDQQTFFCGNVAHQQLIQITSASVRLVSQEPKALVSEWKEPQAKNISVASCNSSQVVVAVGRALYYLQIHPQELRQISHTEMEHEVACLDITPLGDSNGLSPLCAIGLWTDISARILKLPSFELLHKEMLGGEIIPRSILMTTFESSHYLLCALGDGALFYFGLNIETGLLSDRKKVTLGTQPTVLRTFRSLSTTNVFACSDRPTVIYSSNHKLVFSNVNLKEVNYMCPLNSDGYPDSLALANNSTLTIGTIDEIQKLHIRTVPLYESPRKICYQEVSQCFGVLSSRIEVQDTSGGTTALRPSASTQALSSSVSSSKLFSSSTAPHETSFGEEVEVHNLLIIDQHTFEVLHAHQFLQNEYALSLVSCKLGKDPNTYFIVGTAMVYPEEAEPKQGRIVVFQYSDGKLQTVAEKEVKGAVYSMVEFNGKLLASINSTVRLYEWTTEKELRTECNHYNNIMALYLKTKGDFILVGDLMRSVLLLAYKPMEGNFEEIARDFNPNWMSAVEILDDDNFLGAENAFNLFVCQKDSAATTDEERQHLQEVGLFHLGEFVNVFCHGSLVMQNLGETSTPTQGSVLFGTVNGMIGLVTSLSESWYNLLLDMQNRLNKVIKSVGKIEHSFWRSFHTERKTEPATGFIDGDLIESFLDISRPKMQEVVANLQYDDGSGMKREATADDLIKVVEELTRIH
Cyclin E1, sequence (P24864 whole entry): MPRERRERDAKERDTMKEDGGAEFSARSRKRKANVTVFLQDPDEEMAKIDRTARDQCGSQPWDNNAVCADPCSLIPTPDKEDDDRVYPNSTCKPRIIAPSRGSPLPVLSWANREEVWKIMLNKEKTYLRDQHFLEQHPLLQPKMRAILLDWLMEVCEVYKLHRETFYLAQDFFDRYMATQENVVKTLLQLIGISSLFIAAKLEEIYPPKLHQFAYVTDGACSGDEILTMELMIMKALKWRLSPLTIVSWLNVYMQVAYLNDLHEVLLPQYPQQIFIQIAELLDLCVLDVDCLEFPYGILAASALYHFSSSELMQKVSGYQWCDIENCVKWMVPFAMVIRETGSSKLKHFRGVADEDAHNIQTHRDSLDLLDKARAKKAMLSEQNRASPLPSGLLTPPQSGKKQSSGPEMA
Cyclin E1, sequence (Q96SW2 whole entry): as the sequence (Q96SW2 whole entry, the tested form may be a part) above
Cyclin E1, sequence (Q16531 whole entry partner): as the sequence (Q16531 whole entry partner, the tested form may be a part) above

| Compound | DC50 (GSPT1) [nM] | Dmax (GSPT1) [%] | IC50 (Phospho-Rb (Ser807/811)) [nM] | DC50 (Cyclin E1) [nM] | Dmax (Cyclin E1) [%] | Ratio of GSPT1 DC50/Cyclin E1 DC50 (Cyclin E1) | Emax (Phospho-Rb (Ser807/811)) [%] |
| --- | --- | --- | --- | --- | --- | --- | --- |
| COc1c(COC(=O)Nc2ccc(Oc3ccc(F)cc3C)cc2)ccc2c1C(=O)N(C1CCC(=O)NC1=O)C2 (centres unmarked) [Example 81, [2-(2,6-dioxopiperidin-3-yl)-4-methoxy-3-oxo-2,3-dihydro-1H-isoindol-5-yl]methyl N-[4-(4-fluoro-2-methylphenoxy)phenyl]carbamate] | > 14000 | 37 | 64 | 92 | 110 | >152 | 103 |
| COc1cc(Oc2cc(F)c(F)cc2F)ccc1NC(=O)OCc1ccc2c(c1OC)C(=O)N(C1CCC(=O)NC1=O)C2 (centres unmarked) [Example 34, [2-(2,6-dioxopiperidin-3-yl)-4-methoxy-3-oxo-2,3-dihydro-1H-isoindol-5-yl]methyl N-[2-methoxy-4-(2,4,5-trifluorophenoxy)phenyl]carbamate] | > 14000 | 19 | 77 | 194 | 107 | >72 | 122 |
| COc1c(COC(=O)Nc2ccc(Oc3cc(C)cc(C)c3)cc2)ccc2c1C(=O)N(C1CCC(=O)NC1=O)C2 (centres unmarked) [Example 12, [2-(2,6-dioxopiperidin-3-yl)-4-methoxy-3-oxo-2,3-dihydro-1H-isoindol-5-yl]methyl N-[4-(3,5-dimethylphenoxy)phenyl]carbamate] | > 14000 | 11 | 483 | 82 | 100 | >171 | 111 |
| O=C1CCC(N2Cc3ccc(COC(=O)Nc4ccc(Oc5ccc(F)c(F)c5)cc4)c(OC4CCCCC4)c3C2=O)C(=O)N1 (centres unmarked) [Example 137, [4-(cyclohexyloxy)-2-(2,6-dioxopiperidin-3-yl)-3-oxo-2,3-dihydro-1H-isoindol-5-yl]methyl N-[4-(3,4-difluorophenoxy)phenyl]carbamate] | > 14000 | 1 | 19 | 26 | 108 | >547 | 123 |
| COc1c(COC(=O)Nc2ccc(Cc3ccc(F)c(F)c3)cc2)ccc2c1C(=O)N(C1CCC(=O)NC1=O)C2 (centres unmarked) [Example 17, [2-(2,6-dioxopiperidin-3-yl)-4-methoxy-3-oxo-2,3-dihydro-1H-isoindol-5-yl]methyl N-{4-[(3,4-difluorophenyl)methyl]phenyl}carbamate] | > 14000 | 15 | 225 | 447 | 99 | >31 | 114 |
| COc1c(COC(=O)Nc2ccc(Oc3cccc(F)c3)cc2Cl)ccc2c1C(=O)N(C1CCC(=O)NC1=O)C2 (centres unmarked) [Example 27, [2-(2,6-dioxopiperidin-3-yl)-4-methoxy-3-oxo-2,3-dihydro-1H-isoindol-5-yl]methyl N-[2-chloro-4-(3-fluorophenoxy)phenyl]carbamate] | > 14000 | 30 | 1180 | 93 | 104 | >151 | 86 |
| O=C1CCC(N2Cc3ccc(COC(=O)Nc4ccc(Oc5cc(F)c(F)c(F)c5)cc4F)c(O[C@@H]4CCCOC4)c3C2=O)C(=O)N1 (stereo partly drawn) [Example 150, [2-(2,6-dioxopiperidin-3-yl)-4-[(3R)-oxan-3-yloxy]-3-oxo-2,3-dihydro-1H-isoindol-5-yl]methyl N-[2-fluoro-4-(3,4,5-trifluorophenoxy)phenyl]carbamate] | > 14000 | 0 | 96 | 182 | 100 | >77 | 137 |

Now from value to molecule, other results behind:

| DC50 (GSPT1) [nM] | Dmax (GSPT1) [%] | IC50 (Phospho-Rb (Ser807/811)) [nM] | DC50 (Cyclin E1) [nM] | Dmax (Cyclin E1) [%] | Ratio of GSPT1 DC50/Cyclin E1 DC50 (Cyclin E1) | Compound | Emax (Phospho-Rb (Ser807/811)) [%] |
| --- | --- | --- | --- | --- | --- | --- | --- |
| > 14000 | 20 | 132 | 96 | 106 | >146 | COc1c(COC(=O)Nc2ccc(Oc3ccc(F)cc3F)cc2C)ccc2c1C(=O)N(C1CCC(=O)NC1=O)C2 (centres unmarked) [Example 42, [2-(2,6-dioxopiperidin-3-yl)-4-methoxy-3-oxo-2,3-dihydro-1H-isoindol-5-yl]methyl N-[4-(2,4-difluorophenoxy)-2-methylphenyl]carbamate] | 110 |
| > 14000 | 10 | 54 | 116 | 107 | >120 | CC(C)Oc1c(COC(=O)Nc2ccc(Oc3ccc(F)c(F)c3)cc2F)ccc2c1C(=O)N(C1CCC(=O)NC1=O)C2 (centres unmarked) [Example 119, [2-(2,6-dioxopiperidin-3-yl)-3-oxo-4-(propan-2-yloxy)-2,3-dihydro-1H-isoindol-5-yl]methyl N-[4-(3,4-difluorophenoxy)-2-fluorophenyl]carbamate] | 111 |
| > 14000 | 21 | 47 | 15 | 101 | >937 | CC(C)(O)COc1c(COC(=O)Nc2ccc(Oc3ccc(F)c(F)c3)cc2)ccc2c1C(=O)N(C1CCC(=O)NC1=O)C2 (centres unmarked) [Example 159, [2-(2,6-dioxopiperidin-3-yl)-4-(2-hydroxy-2-methylpropoxy)-3-oxo-2,3-dihydro-1H-isoindol-5-yl]methyl N-[4-(3,4-difluorophenoxy)phenyl]carbamate] | 145 |
| > 14000 | 45 | 865 | 1430 | 92 | >10 | COc1c(COC(=O)Nc2ccc(C(F)(F)c3ccccc3)cc2)ccc2c1C(=O)N(C1CCC(=O)NC1=O)C2 (centres unmarked) [Example 29, [2-(2,6-dioxopiperidin-3-yl)-4-methoxy-3-oxo-2,3-dihydro-1H-isoindol-5-yl]methyl N-{4-[difluoro(phenyl)methyl]phenyl}carbamate] | 99 |
| > 14000 | 11 | 24 | 38 | 110 | >368 | O=C1CCC(N2Cc3ccc(COC(=O)Nc4ccc(Oc5ccc(F)cc5F)cc4F)c(OC4CCOCC4)c3C2=O)C(=O)N1 (centres unmarked) [Example 136, [2-(2,6-dioxopiperidin-3-yl)-4-(oxan-4-yloxy)-3-oxo-2,3-dihydro-1H-isoindol-5-yl]methyl N-[4-(2,4-difluorophenoxy)-2-fluorophenyl]carbamate] | 144 |
| > 14000 | 21 | 1780 | 203 | 90 | >69 | COc1c(COC(=O)Nc2ccc(C3(c4ccccc4)CC3)cc2)ccc2c1C(=O)N(C1CCC(=O)NC1=O)C2 (centres unmarked) [Example 7, [2-(2,6-dioxopiperidin-3-yl)-4-methoxy-3-oxo-2,3-dihydro-1H-isoindol-5-yl]methyl N-[4-(1-phenylcyclopropyl)phenyl]carbamate] | 10 |
| > 14000 | 24 | 111 | 99 | 106 | >142 | COc1cc(Oc2cc(F)c(F)cc2Cl)ccc1NC(=O)OCc1ccc2c(c1OC)C(=O)N(C1CCC(=O)NC1=O)C2 (centres unmarked) [Example 108, [2-(2,6-dioxopiperidin-3-yl)-4-methoxy-3-oxo-2,3-dihydro-1H-isoindol-5-yl]methyl N-[4-(2-chloro-4,5-difluorophenoxy)-2-methoxyphenyl]carbamate] | 112 |
| > 14000 | 11 | 30 | 45 | 110 | >308 | CN(C)C(=O)COc1c(COC(=O)Nc2ccc(Oc3ccc(F)c(F)c3)cc2)ccc2c1C(=O)N(C1CCC(=O)NC1=O)C2 (centres unmarked) [Example 175, {4-[(dimethylcarbamoyl)methoxy]-2-(2,6-dioxopiperidin-3-yl)-3-oxo-2,3-dihydro-1H-isoindol-5-yl}methyl N-[4-(3,4-difluorophenoxy)phenyl]carbamate] | 128 |
| > 14000 | 6 | 149 | 62 | 94 | >226 | COc1c(COC(=O)Nc2ccc(Cc3cccc(F)c3)cc2)ccc2c1C(=O)N(C1CCC(=O)NC1=O)C2 (centres unmarked) [Example 6, [2-(2,6-dioxopiperidin-3-yl)-4-methoxy-3-oxo-2,3-dihydro-1H-isoindol-5-yl]methyl N-{4-[(3-fluorophenyl)methyl]phenyl}carbamate] | 117 |
| > 14000 | 8 | 27 | 67 | 105 | >210 | O=C1CCC(N2Cc3ccc(COC(=O)Nc4ccc(Oc5ccc(F)cc5F)cc4)c(OC4CCOCC4)c3C2=O)C(=O)N1 (centres unmarked) [Example 139, [2-(2,6-dioxopiperidin-3-yl)-4-(oxan-4-yloxy)-3-oxo-2,3-dihydro-1H-isoindol-5-yl]methyl N-[4-(2,4-difluorophenoxy)phenyl]carbamate] | 170 |
